Test results reported in paper PMC8666671, “Fine-tuning spermidine binding modes in the putrescine binding protein PotF” (The Journal of Biological Chemistry, 2021).
Positions count from the first letter of the chain named. “And” between values parts separate entries of the source, which are not always exact repeats. Equal entries are not always repeated. Where two headings read alike, the source gives them in different places.

Tests used:
Format in all cases: binding
[1] = molecular target: T1, PotF/D–E39D–Y87S–F88Y–S247D (Escherichia coli, UniProt P31133, A182D/F276W/F88Y/L348Q/S38T); assay: ITC, PotF/D–E39D–Y87S–F88Y–S247D; conditions: 293 K; for n: ITC binding stoichiometry; for ΔG / ΔH / −TΔS / Kd: ITC
T1 construct: without the N-terminal signal peptide; made in house; host or cells: E. coli BL21 (DE3)
T1 sequence (P31133 27-370 S38T/F88Y/A182D/F276W/L348Q): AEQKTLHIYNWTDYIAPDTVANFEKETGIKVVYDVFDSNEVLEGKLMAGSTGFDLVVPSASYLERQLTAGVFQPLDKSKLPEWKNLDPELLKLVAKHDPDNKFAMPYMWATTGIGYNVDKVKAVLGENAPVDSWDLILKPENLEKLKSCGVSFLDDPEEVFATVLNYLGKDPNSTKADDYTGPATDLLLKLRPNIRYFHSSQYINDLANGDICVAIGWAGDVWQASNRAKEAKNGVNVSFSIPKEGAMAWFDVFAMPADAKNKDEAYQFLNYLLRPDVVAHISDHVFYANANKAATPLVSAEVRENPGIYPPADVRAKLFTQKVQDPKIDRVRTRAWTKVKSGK
Procedure: (§1) Ligands were always freshly prepared in the exact same buffer as was used for the size exclusion run. Samples were degassed, and temperature was equilibrated using a degassing station (TA Instruments). About 400 μl protein sample of different concentrations (Table S5) depending on affinity was transferred into the sample cell of a nanoITC (TA Instruments), and 50 μl of about tenfold concentrated ligand solution was loaded into the injection needle. Multiple injection measurements were carried out at 293 K, 300 rpm stirring rate, and 250 s spacings between each 2 μl injection. The heat quantity past injection was determined by integration of the measured peaks. Every protein–ligand combination was measured as biological triplicate. Subtraction of heat of dilution measurements, peak integration, and one site binding fits were done with NanoAnalyze (TA Instruments). Reported errors are the errors between fits of the measured triplicates.

PotF_Abox = molecular target: T2, PotF_Abox (Escherichia coli, UniProt P31133, F276W); assay: ITC, PotF_Abox (F276W); conditions: for n: ITC binding stoichiometry; for n / Kd / ΔG / ΔH / −TΔS: 293 K, PotF_Abox; for Kd: 50 mM Tris pH 8, 300 mM NaCl, biological triplicates
T2 construct: without the N-terminal signal peptide; made in house; host or cells: E. coli BL21 (DE3)
T2 sequence (P31133 27-370 F276W): T1 sequence (P31133 27-370 S38T/F88Y/A182D/F276W/L348Q) with T12S, Y62F, D156A, Q322L
Procedure: as §1

PotF_Abox-S87Y = molecular target: T3, PotF_Abox-S87Y (Escherichia coli, UniProt P31133, F276W/S87Y); assay: ITC, PotF_Abox-S87Y (F276W, S87Y); conditions: 293 K; for n: ITC binding stoichiometry; for ΔG / ΔH / −TΔS / Kd: ITC; for Kd: 50 mM Tris pH 8, 300 mM NaCl, biological triplicates
T3 construct: without the N-terminal signal peptide; made in house; host or cells: E. coli BL21 (DE3)
T3 sequence (P31133 27-370 S87Y/F276W): T1 sequence (P31133 27-370 S38T/F88Y/A182D/F276W/L348Q) with T12S, S61Y, Y62F, D156A, Q322L
Procedure: as §1

PotF_Abox-L348Q = molecular target: T4, PotF_Abox-L348Q (Escherichia coli, UniProt P31133, F276W/L348Q); assay: ITC, PotF_Abox-L348Q (F276W, L348Q); conditions: 293 K; for n: ITC binding stoichiometry; for ΔG / ΔH / −TΔS / Kd: ITC; for Kd: 50 mM Tris pH 8, 300 mM NaCl, biological triplicates
T4 construct: without the N-terminal signal peptide; made in house; host or cells: E. coli BL21 (DE3)
T4 sequence (P31133 27-370 F276W/L348Q): T1 sequence (P31133 27-370 S38T/F88Y/A182D/F276W/L348Q) with T12S, Y62F, D156A
Procedure: as §1

PotF_Dist = molecular target: T5, PotF_Dist (Escherichia coli, UniProt P31133, A182D/L348Q/S87Y); assay: ITC, PotF_Dist (S87Y, A182D, L348Q); conditions: 293 K
T5 construct: without the N-terminal signal peptide; made in house; host or cells: E. coli BL21 (DE3)
T5 sequence (P31133 27-370 S87Y/A182D/L348Q): T1 sequence (P31133 27-370 S38T/F88Y/A182D/F276W/L348Q) with T12S, S61Y, Y62F, W250F
Procedure: as §1

[2] = ITC, PotF_Abox compared with wildtype PotF
[3] = ITC, 50 mM Tris pH 8, 300 mM NaCl, biological triplicates

Which results are given for `NCCCCN` [PUT, putrescine]?
n [1]: 0.90 ± 0.01; ΔG [1]: -5.51 ± 0.02 kcal/mol; ΔH [1]: -4.15 ± 0.05 kcal/mol; −TΔS [1]: -1.36 ± 0.05 kcal/mol; Kd ([1]; 50 mM Tris pH 8, 300 mM NaCl, biological triplicates, read-out: KD): 77.9 ± 3.17 µM; n (PotF_Abox): 0.90 ± 0.03; Kd (PotF_Abox; ITC): ~0.21 µM and 0.21 µM; ΔG (PotF_Abox; ITC): -8.97 ± 0.10 kcal/mol; ΔH (PotF_Abox; ITC): -22.25 ± 0.77 kcal/mol; −TΔS (PotF_Abox; ITC): 13.28 ± 0.75 kcal/mol; ΔΔH (PotF_Abox; [2]): +0.77 kcal/mol; n (PotF_Abox-S87Y): 0.92 ± 0.03; ΔG (PotF_Abox-S87Y): -6.47 ± 0.02 kcal/mol; ΔH (PotF_Abox-S87Y): -9.97 ± 0.20 kcal/mol; −TΔS (PotF_Abox-S87Y): 3.50 ± 0.18 kcal/mol; Kd (PotF_Abox-S87Y): 14.9 ± 0.54 µM; n (PotF_Abox-L348Q): 0.94 ± 0.03; ΔG (PotF_Abox-L348Q): -7.48 ± 0.02 kcal/mol; ΔH (PotF_Abox-L348Q): -14.22 ± 0.75 kcal/mol; −TΔS (PotF_Abox-L348Q): 6.74 ± 0.74 kcal/mol; Kd (PotF_Abox-L348Q): ~3.3 µM and 2.66 µM; KD (PotF_Dist; [3]): abolishes association

What does the source list for `NCCCCNCCCN` [SPD, spermidine]?
n [1]: 0.91 ± 0.02; ΔG [1]: -8.17 ± 0.17 kcal/mol; ΔH [1]: -5.46 ± 0.08 kcal/mol; −TΔS [1]: -2.71 ± 0.16 kcal/mol; Kd ([1]; read-out: SPD affinity (KD)): 0.84 µM; n (PotF_Abox): 0.96 ± 0.06; Kd (PotF_Abox; ITC): ~11 µM and 11.1 µM; ΔG (PotF_Abox; ITC): -6.65 ± 0.04 kcal/mol; ΔH (PotF_Abox; ITC): -6.25 ± 0.16 kcal/mol; −TΔS (PotF_Abox; ITC): -0.40 ± 0.21 kcal/mol; Δ(−TΔS) (PotF_Abox; [2]): +2.02 kcal/mol; n (PotF_Abox-S87Y): 0.97 ± 0.02; ΔG (PotF_Abox-S87Y): -6.30 ± 0.02 kcal/mol; ΔH (PotF_Abox-S87Y): -5.66 ± 0.12 kcal/mol; −TΔS (PotF_Abox-S87Y): -0.65 ± 0.12 kcal/mol; Kd (PotF_Abox-S87Y): 20 ± 0.7 µM; n (PotF_Abox-L348Q): 0.98 ± 0.01; ΔG (PotF_Abox-L348Q): -7.83 ± 0.68 kcal/mol; ΔH (PotF_Abox-L348Q): -7.72 ± 0.03 kcal/mol; −TΔS (PotF_Abox-L348Q): -0.11 ± 0.69 kcal/mol; Kd (PotF_Abox-L348Q): ~2.6 µM and 3.26 µM; n (PotF_Dist; ITC binding stoichiometry): 0.91 ± 0.02; ΔG (PotF_Dist; ITC): -5.48 ± 0.20 kcal/mol; ΔH (PotF_Dist; ITC): -1.83 ± 0.08 kcal/mol; −TΔS (PotF_Dist; ITC): -3.65 ± 0.28 kcal/mol; KD (PotF_Dist; [3]): very low; Kd (PotF_Dist; [3]): 88.2 ± 33.1 µM
